According to patent publication US20230265481A1, “METHOD FOR MEASURING THE PROTEASE ACTIVITY OF C3 AND C5 CONVERTASE OF THE ALTERNATIVE COMPLEMENT PATHWAY” (Alexion Pharmaceuticals, Inc., priority 2015, published 2023):

Legend:
Factor D = target: T1, Factor D (Homo sapiens, UniProt P00746); test: BLI biosensor assay of Factor D cleavage of Factor B, anti-Bb antibody binding; type: biochemical
T1 construct: purchased Comptech (Tyler TX)

C5 convertase = C5 convertase activity on bio-C3b streptavidin-coated spheres, C5a measured with MSD (ECL) assay; type: biochemical; settings: for ECL signal (amount of C5a produced by C5 convertase): C5 100 nM, 60 minutes
Experimental: The bio-C3b binding to streptavidin was performed in a 2.0 ml micro-centrifuge tube. Two hundred and forty […] of Spherotech beads, […] diameter, streptavidin coated spheres were first washed by centrifugation with 300 μL of 10 mM Tris, pH 8, and then resuspended in 200 μL of 10 mM Tris, pH 8. The spheres were incubated with bio-C3b or C3b at a concentration of 320 nM. Spheres were suspended by gentle shaking at 1350 RPM for 20 minutes at room temperature, and collected by centrifugation at 16 RCF for 10 minutes. The residual supernatant was removed and the beads are then washed to remove residual unbound bio-C3b.
C5 convertase was formed on the spheres by incubating the bio-C3b spheres with a Convertase Solution that included components of the AP, a divalent cation and buffer. The Convertase Solution consisted of Factor D, (10 nM), Factor B (400 nM), and NiCl2 (200 μM) in 10 mM Tris, pH 8.0. The spheres were suspended by gentle shaking at 1350 RPM for 20 minutes at 37° C. The spheres were centrifuged at 16×g (RCF) for 10 minutes, the supernatant is removed, and the spheres are resuspended in 1.2 ml of 10 mM Tris pH 8, 1 mM EDTA to a final concentration of 200 μg/ml.
Formation of C5a was accomplished by incubating C5, and the spheres in a Reaction Solution that included a divalent cation. The Reaction Solution was prepared by transferring to a microplate well: (i) […] of spheres with C5 convertase in 10 μl of the Convertase Solution; (ii) […] of a 500 μM NiCl2 solution; and (iii) […] of a 250 nM solution of C5 (5 pmoles). […]
Following the incubation, the reaction was stopped by adding 10 μL of a 500 mM EDTA in 10 mM Tris, pH=8.0. (Total Volume=60 μl)
The amount of C5a in the Reaction Solution was measured with an MSD assay, similar to an ELISA. The neo-epitope anti-C5a antibody, BNJ383, captured soluble C5a, binding it to a well in a microplate. BNJN383 has a high affinity for C5a but a low affinity for C5. The detection reagent was a mouse anti-C5a antibody that binds the C5a captured on the plate, and a SULFO-TAG™ modified anti-mouse secondary antibody that bound the mouse antibody, and generated an ECL signal.
To wells of a high binding 96-well microplate (MSD Catalog No. L15XB-3) was added BNJ383 (0.3 pmoles,)[…]/mL in 25 μL of a carbonate-bicarbonate buffer at pH 9.4. The microplate was sealed and incubated at 37° C. for 60 minutes. […]
The wells were sealed with a foil seal and incubated in the dark for 30 minutes. […] One hundred and fifty μL of 2X MSD Read Buffer containing tripropylamine as an electron carrier was added to the wells using a negative pipetting technique. The microplate was read on an MSD imager to measure the ECL signal generated by the SULFO-TAG™ affixed to the goat secondary antibody. […]

T1 sequence (P00746 26-253): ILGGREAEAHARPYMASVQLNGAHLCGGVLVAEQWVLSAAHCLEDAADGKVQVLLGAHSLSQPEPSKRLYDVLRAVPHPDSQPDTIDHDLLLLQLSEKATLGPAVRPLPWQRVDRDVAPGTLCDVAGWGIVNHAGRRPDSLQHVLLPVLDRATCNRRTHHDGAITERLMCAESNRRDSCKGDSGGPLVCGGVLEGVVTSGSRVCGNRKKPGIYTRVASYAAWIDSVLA

Effect on Factor D activity (Factor D; DCIC 23 μM and 35 μM)	Effect on Factor D activity (Factor D; DCIC 178 μM, 267 μM and 400 μM)	Molecule	Effect on convertase activity (C5 convertase; OmCI 50 nM)	ECL signal (amount of C5a produced by C5 convertase) (C5 convertase; OmCI 50 nM)	drop of ECL signal (C5 convertase; OmCI 100 nM) [fold]	ECL signal (amount of C5a produced by C5 convertase) (C5 convertase; OmCI 100 nM)
minimal effect	maximally inhibited	O=c1oc(Cl)c(Cl)c2ccccc12 [DCIC, 3,4-Dichloroisocoumarin]				
		OmCI: tick saliva complement inhibitor, a C5 binding protein that reduces access of the C5 convertase to the C5 cleavage site	essentially no effect	40,000	8	5000
